According to patent US10947188B2, “Small molecule ferroptosis inducers” (THE TRUSTEES OF COLUMBIA UNIVERSITY IN THE CITY OF NEW YORK, priority 2016, dated 2021):

Tests used:
HT-1080 cells [1] = experiment: Analysis of lipid ROS generation (C11-BODIPY 581/591 flow cytometry); assay type: cell-based
Protocol: Cells were treated with test compounds, trypsinized, pelleted, and washed once with PBS. For lipophilic or aqueous ROS detection, cells were re-suspended in Hanks' Balanced Salt Solution (HBSS; […] Cells were then pelleted, re-suspended in 500 μL HBSS, strained through a 40-μm cell strainer (BD Falcon), and analyzed using a BD Accuri C6 flow cytometer (BD Biosciences). Both dyes were measured in the FL1 channel. Experiments were done in biological triplicates.

HT-1080 cells [2] = experiment: Cell viability assay (Alamar Blue), lethal compounds with or without modulators; assay type: cell-based; details: for effect on FIN56 lethality: modulator cotreatment or pretreatment
Protocol: 1,000 cells per 36 μl were seeded in each well in 384-well plates. Lethal compounds were dissolved, and a twofold, 12-point dilution series was prepared in DMSO. Compound solutions were further diluted with media at 1:25, and 4 μl per well of the diluted solutions was added to cell cultures immediately after cells were seeded. […] When other cell-death-modulating compounds (100 nM sodium selenite, 1 μM cerivastatin, 100 μg/mL mevalonic acid) were used in cotreatments, they were supplemented to cell culture for 24 h before lethal compounds were added to cell culture, after which cells were further incubated for 24 h at 37° C. under 5% CO2. On the day of the viability measurement, we added 10 μl per well of 50% Alamar Blue diluted in media (Life Technologies) and further incubated the cells at 37° C. for 6 h. Fluorescence intensity (excitation/emission: 530/590) was measured with a Victor 3 plate reader (PerkinElmer), and the normalized viability was calculated as VL=(IL−I0)/(IV−I0), where VL, I0, IV, and IL are the normalized viability and the raw fluorescence intensities from the wells containing media, cells treated with a vehicle (negative control), and cells with the lethal compound (L), respectively. When the effect of a chemical modulator (M) on L was calculated, we instead used the equation VL|M=(IM,L−I0)/(IM,V−I0), where VL|M, IM,L and IM,V are the normalized viability, and fluorescence intensity from cells treated with […], respectively. The viability was typically measured in biological triplicate unless otherwise specified. A representative dose-response curve, the mean and standard error of normalized viability from one replicate were plotted. […]

GPX4 = experiment: Western blotting of GPX4 protein abundance; assay type: cell-based, human; details: for effect on FIN56-induced decrease of GPX4 protein abundance: 5 μM FIN56
Protocol: Seeded 300,000 cells (HT-1080 or BJeLR) per well in six-well plates. For cotreatment, ferroptosis inducers (10 μM erastin for 11 h, 0.5 μM (1S, 3R)-RSL3 for 2 h, or 5 μM FIN56) and 100 μM α-tocopherol were added to cell culture at the same time, and cells were then incubated for 10 h (FIG. 2E). When other death-modulating compounds (100 nM sodium selenite, 1 μM cerivastatin, 100 μg/mL mevalonic acid, 30 μM C75, or 2 μM cerulenin) were used in cotreatments, cells were pre-incubated with the modulators for 24 h before being treated with ferroptosis inducers for 6 h. Cell lysis, SDS-PAGE and protein transfer to PVDF membrane were performed as previously described (Dixon et al. 2012). We used the following antibodies: anti-human α-tubulin (Santa Cruz Biotechnology, sc-32293, 1:10,000 dilution), anti-human GPX4 (Abcam, ab41787, 1:2,000 dilution), anti-human GPX1 (R&D Systems, AF3798, 1:1,000 dilution), and anti-human SQS (Abcam, ab109723 for full-length, ab195046 for truncated, both at 1:1,000 dilution). Secondary antibodies were from LI-COR (1:3,000 dilution). The PVDF membranes labeled with primary and secondary antibodies were scanned using an Odyssey Imaging System (LI-COR). Experiments were performed in biological triplicates, and the mean±s.e. of intensity was plotted.

Row | Structure (SMILES) | effect on lipid ROS generation after FIN56 treatment (HT-1080 cells [1]) | effect on staurosporine-induced cell death (HT-1080 cells [2]) | effect on FIN56 lethality (HT-1080 cells [2]; HT-1080 cells) | effect on FIN56-induced decrease of GPX4 protein abundance (GPX4) | suppression of lethality by mevalonate-pathway modulators (FPP, YM-53601, idebenone) and α-tocopherol (HT-1080 cells [2]; HT-1080 cells, modulatory profiling scheme) | abundance of GPX4 protein (GPX4; BJeLR, cotreatment with 100 μM α-tocopherol, 10 h, FIN56 5 μM)
1 | COC1=C(OC)C(=O)C(CCCCCCCCCCO)=C(C)C1=O [idebenone] | inhibited lipid ROS generation after FIN56 treatment | enhanced it | the only suppressor of FIN56-induced ferroptosis | did not block the decrease in GPX4 protein abundance |  | 
2 | CCCCCCCCCCCCCCOc1ccc(C(=O)O)o1 [TOFA] | suppressed lipid ROS generation after FIN56 treatment |  | potent suppressor of FIN56 | inhibited the loss of GPX4 |  | 
3 | COC(=O)c1ccc([C@H]2c3[nH]c4ccccc4c3C[C@H](C(=O)OC)N2C(=O)CCl)cc1 [(1S, 3R)-RSL3] |  |  |  |  | potently suppressed by all the compounds | Neither erastin nor (1S, 3R)-RSL3 affected the abundance of GPX4 to the same extent as FIN56
